Legend:
TK-10 = assay: NCI-60 growth inhibition (sulforhodamine B); assay type: cell-based; conditions: Homo sapiens, TK-10, Renal Cancer, negative log of Molar value, LCONC -8, EXPID 2301NS84
[1] = system: MCF10A PANK4 KO+PANK4 WT cells; assay: Sulforhodamine B cell growth assay, MCF10A PANK4 KO+PANK4 WT; assay type: cell-based, human
RXF393 = assay: NCI-60 growth inhibition (sulforhodamine B); assay type: cell-based; conditions: Homo sapiens, RXF 393, Renal Cancer, negative log of Molar value, LCONC -8, EXPID 2301NS84
NCI-H460 = system: NCI-H460; parameters: method as in ref 29 (a number printed in a supplementary file, which may have a reference list of its own: not looked up in the article's list); conditions: Non-SmallCellLung NCI-H460; highest log conc -4.0; NCI-60 screen data; cited from earlier work
A498 = system: A498; parameters: method as in ref 29 (a number printed in a supplementary file, which may have a reference list of its own: not looked up in the article's list); conditions: Renal A498; highest log conc -4.0; NCI-60 screen data; cited from earlier work
ACHN = system: ACHN; parameters: method as in ref 29 (a number printed in a supplementary file, which may have a reference list of its own: not looked up in the article's list); conditions: Renal ACHN; highest log conc -4.0; NCI-60 screen data; cited from earlier work
SK-OV-3 = system: SK-OV-3; parameters: method as in ref 29 (a number printed in a supplementary file, which may have a reference list of its own: not looked up in the article's list); conditions: Ovarian SK-OV-3; highest log conc -4.0; NCI-60 screen data; cited from earlier work
T-47D = system: T-47D; parameters: method as in ref 29 (a number printed in a supplementary file, which may have a reference list of its own: not looked up in the article's list); conditions: Breast T-47D; highest log conc -4.0; NCI-60 screen data; cited from earlier work
BT-549 = system: BT-549; parameters: method as in ref 29 (a number printed in a supplementary file, which may have a reference list of its own: not looked up in the article's list); conditions: Breast BT-549; highest log conc -4.0; NCI-60 screen data; cited from earlier work
UACC-257 = system: UACC-257; parameters: method as in ref 29 (a number printed in a supplementary file, which may have a reference list of its own: not looked up in the article's list); conditions: Melanoma UACC-257; highest log conc -4.0; NCI-60 screen data; cited from earlier work
NCI/ADR-RES = system: NCI/ADR-RES; parameters: method as in ref 29 (a number printed in a supplementary file, which may have a reference list of its own: not looked up in the article's list); conditions: Ovarian NCI/ADR-RES; highest log conc -4.0; NCI-60 screen data; cited from earlier work
NCI-H522 = system: NCI-H522; parameters: method as in ref 29 (a number printed in a supplementary file, which may have a reference list of its own: not looked up in the article's list); conditions: Non-SmallCellLung NCI-H522; highest log conc -4.0; NCI-60 screen data; cited from earlier work
786-0 = system: 786-0; parameters: method as in ref 29 (a number printed in a supplementary file, which may have a reference list of its own: not looked up in the article's list); conditions: Renal 786-0; highest log conc -4.0; NCI-60 screen data; cited from earlier work
NCI-H226 = system: NCI-H226; parameters: method as in ref 29 (a number printed in a supplementary file, which may have a reference list of its own: not looked up in the article's list); conditions: Non-SmallCellLung NCI-H226; highest log conc -4.0; NCI-60 screen data; cited from earlier work
KM12 = system: KM12; parameters: method as in ref 29 (a number printed in a supplementary file, which may have a reference list of its own: not looked up in the article's list); conditions: Colon KM12; highest log conc -4.0; NCI-60 screen data; cited from earlier work
SNB-75 = system: SNB-75; parameters: method as in ref 29 (a number printed in a supplementary file, which may have a reference list of its own: not looked up in the article's list); conditions: CNS SNB-75; highest log conc -4.0; NCI-60 screen data; cited from earlier work
SK-MEL-2 = system: SK-MEL-2; parameters: method as in ref 29 (a number printed in a supplementary file, which may have a reference list of its own: not looked up in the article's list); conditions: Melanoma SK-MEL-2; highest log conc -4.0; NCI-60 screen data; cited from earlier work
UO-31 = system: UO-31; parameters: method as in ref 29 (a number printed in a supplementary file, which may have a reference list of its own: not looked up in the article's list); conditions: Renal UO-31; highest log conc -4.0; NCI-60 screen data; cited from earlier work
CAKI-1 = system: CAKI-1; parameters: method as in ref 29 (a number printed in a supplementary file, which may have a reference list of its own: not looked up in the article's list); conditions: Renal CAKI-1; highest log conc -4.0; NCI-60 screen data; cited from earlier work
HOP-92 = system: HOP-92; parameters: method as in ref 29 (a number printed in a supplementary file, which may have a reference list of its own: not looked up in the article's list); conditions: Non-SmallCellLung HOP-92; highest log conc -4.0; NCI-60 screen data; cited from earlier work
NCI-H23 = system: NCI-H23; parameters: method as in ref 29 (a number printed in a supplementary file, which may have a reference list of its own: not looked up in the article's list); conditions: Non-SmallCellLung NCI-H23; highest log conc -4.0; NCI-60 screen data; cited from earlier work
[2] = read-out: GI50 NLOGVALUE (converted)

**Q.** With `C[C@H](CN[C@@H](C(=O)Nc1ccc(-c2cnn(C)c2)cn1)c1ccccc1)c1ccc(C#N)cc1` [CPI-1612] as the compound, how does the GI50 (TK-10; [2]) read?
**A.** 0.132 µM

**Q.** What about the IC50 (TK-10; read-out: IC50 NLOGVALUE) of the same compound?
**A.** > 100 µM

**Q.** And the CC50 (TK-10; read-out: LC50 NLOGVALUE)?
**A.** > 100 µM

**Q.** What about the IC50 ([1]; Homo sapiens, MCF-10A KO+PANK4 WT, 72 h) of the same compound?
**A.** 0.0089 µM

**Q.** What about the “growth inhibition activity at 1 μM” value ([1]; PANK4 KO+WT cells, 1 μM) of the same compound?
**A.** remains active

**Q.** And the GI50 (RXF393; [2])?
**A.** 55 µM

**Q.** And the IC50 (RXF393; read-out: IC50 NLOGVALUE)?
**A.** > 100 µM

**Q.** And the CC50 (RXF393; read-out: LC50 NLOGVALUE)?
**A.** > 100 µM

**Q.** Which results are given for `COC(=O)N1c2ccc3c(nc(Cc4ccccc4)n3[C@H]3CCC[C@H](C(=O)O)C3)c2CC[C@@H]1C` [FT-6876]?
**A.** GI50 AVGDATA (NCI-H460): -4.63; GI50 AVGDATA (A498): -4.91; GI50 AVGDATA (ACHN): -4.77; GI50 AVGDATA (SK-OV-3): -4.77; GI50 AVGDATA (T-47D): -5.5; GI50 AVGDATA (BT-549): -4.31; GI50 AVGDATA (UACC-257): -4.83; GI50 AVGDATA (NCI/ADR-RES): -4.19; GI50 AVGDATA (NCI-H522): -4.95; GI50 AVGDATA (786-0): -5.25; GI50 AVGDATA (NCI-H226): -4.85; GI50 AVGDATA (KM12): -4.79; GI50 AVGDATA (SNB-75): -6.37; GI50 AVGDATA (SK-MEL-2): -4.46; GI50 AVGDATA (UO-31): -5.54; GI50 AVGDATA (CAKI-1): -5.74; GI50 AVGDATA (HOP-92): -5.79

**Q.** What does the source list for `Cc1sc2c(c1C)C(c1ccc(Cl)cc1)=N[C@@H](CC(=O)OC(C)(C)C)c1nnc(C)n1-2` [JQ-1]?
**A.** GI50 AVGDATA (NCI-H460): -6.22; GI50 AVGDATA (A498): -7.21; GI50 AVGDATA (ACHN): -6.3; GI50 AVGDATA (SK-OV-3): -6.49; GI50 AVGDATA (T-47D): -6.67; GI50 AVGDATA (BT-549): -5.51; GI50 AVGDATA (UACC-257): -6.83; GI50 AVGDATA (NCI/ADR-RES): -6.4; GI50 AVGDATA (NCI-H23): -6.55; GI50 AVGDATA (NCI-H522): -7.25; GI50 AVGDATA (786-0): -6.08; GI50 AVGDATA (NCI-H226): -4.99; GI50 AVGDATA (KM12): -6.02; GI50 AVGDATA (SNB-75): -7.6; GI50 AVGDATA (SK-MEL-2): -5.27; GI50 AVGDATA (UO-31): -7.52; GI50 AVGDATA (CAKI-1): -7.27; GI50 AVGDATA (HOP-92): -7.74

**Q.** Which results are given for `CO[C@H]1CC[C@H](n2c([C@@H]3CCCC(=O)N3c3ccc(F)c(F)c3)nc3cc(-c4c(C)noc4C)ccc32)CC1` [inobrodib]?
**A.** GI50 AVGDATA (NCI-H460): -4.58; GI50 AVGDATA (A498): -5.22; GI50 AVGDATA (ACHN): -5.32; GI50 AVGDATA (SK-OV-3): -5.39; GI50 AVGDATA (T-47D): -5.69; GI50 AVGDATA (BT-549): -4.99; GI50 AVGDATA (UACC-257): -5.59; GI50 AVGDATA (NCI/ADR-RES): -4.87; GI50 AVGDATA (NCI-H23): -4.88; GI50 AVGDATA (NCI-H522): -5.53; GI50 AVGDATA (NCI-H226): -5.37; GI50 AVGDATA (KM12): -4.86; GI50 AVGDATA (SNB-75): -7.96; GI50 AVGDATA (SK-MEL-2): -4.94; GI50 AVGDATA (UO-31): -5.79; GI50 AVGDATA (CAKI-1): -6.19; GI50 AVGDATA (HOP-92): -5.69
